Entries after “also recorded” stand apart in the source; their conditions may differ.
Assays:
TxtE-BM3R [1] = target: T1, TxtE-BM3R (UniProt C9ZDC6+P14779); experiment: Substrate binding affinity by UV-Vis spectral titration, TxtE-BM3R; set-up: species or system S. scabies 87.22 / B. megaterium ATCC 14581; conditions: for binding affinity lowered compared with native substrate L-tryptophan: TxtE-BM3R; for Kd: […] enzyme, 25 mM Tris-HCl pH 8.0, for 4-F-DL-tryptophan total concentration of the racemic mixture used; for binding affinity to TxtE-BM3R compared with TxtE: tighter/higher than to TxtE
T1 construct: P450BM3 (CYP102A1) reductase domain BM3R with its Domcut-predicted native linker, from B. megaterium ATCC 14581 (GenBank J04832.1); made in house; host or cells: E. coli BL21 (DE3)-GOLD
Description: (§1) Purified TxtE and its fusion enzymes were spectrally analyzed following a previous protocol (Ding et al. 2008). Briefly, the absorbance spectra (400-600 nm) of TxtE variants (3 M) in Tris-HCl (25 mM, pH 8) buffer were recorded with a Shimadzu UV2700 dual beam UV-Vis spectrophotometer. The ferric heme of enzymes was then saturated with carbon monoxide (Airgas) through bubbling and the spectra of the saturated enzyme solutions were recorded. Immediately, sodium dithionite solution (30 μL, 0.5 M) was added to reduce ferric ion, and reduced spectra were taken subsequently. CO reduced difference spectra of all enzymes were created by subtracting the CO binding spectra from the reduced spectra. Data were further analyzed by GraphPad Prism 4. […] Not more than 10 μl of substrate stock solutions prepared in the above buffer were added to the sample cuvette with an interval of 0.5 μl, and the spectra were recorded from 300 nm to 500 nm each time. The equal volume of buffer was added to the reference cuvette. The changes in absorbance (ΔA) were determined by subtracting the absorbance at ˜420 nm from that at ˜390 nm. Data were then fitted to Michaelis-Menten equation using GraphPad Prism 4.
as §1, with “previous protocol.” for “previous protocol (Ding et al. 2008).”, “(3 μM)” for “(3 M)”, “to the” for “to Michaelis-Menten”, “equation of ΔA=ΔAmax[L]/(Kd+[L])” for “equation”

TxtE-RhFRed [2] = target: T2, TxtE-RhFRed (Streptomyces scabiei, UniProt C9ZDC6); experiment: Substrate binding affinity by UV-Vis spectral titration, TxtE-RhFRed*; set-up: species or system S. scabies 87.22; conditions: […] enzyme, 25 mM Tris-HCl pH 8.0
T2 sequence (C9ZDC6 1-406): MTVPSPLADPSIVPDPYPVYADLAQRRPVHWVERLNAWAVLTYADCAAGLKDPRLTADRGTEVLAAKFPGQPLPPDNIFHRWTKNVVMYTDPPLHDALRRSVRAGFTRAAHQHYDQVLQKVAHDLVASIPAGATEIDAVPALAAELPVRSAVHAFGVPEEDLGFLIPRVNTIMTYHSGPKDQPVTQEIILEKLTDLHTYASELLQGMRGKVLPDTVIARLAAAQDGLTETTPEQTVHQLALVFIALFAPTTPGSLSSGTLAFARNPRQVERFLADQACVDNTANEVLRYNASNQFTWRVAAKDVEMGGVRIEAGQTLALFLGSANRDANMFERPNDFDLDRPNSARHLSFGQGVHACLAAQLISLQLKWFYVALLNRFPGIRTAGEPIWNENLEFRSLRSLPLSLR
T2 sequence (Q8KU27 445-773 partner): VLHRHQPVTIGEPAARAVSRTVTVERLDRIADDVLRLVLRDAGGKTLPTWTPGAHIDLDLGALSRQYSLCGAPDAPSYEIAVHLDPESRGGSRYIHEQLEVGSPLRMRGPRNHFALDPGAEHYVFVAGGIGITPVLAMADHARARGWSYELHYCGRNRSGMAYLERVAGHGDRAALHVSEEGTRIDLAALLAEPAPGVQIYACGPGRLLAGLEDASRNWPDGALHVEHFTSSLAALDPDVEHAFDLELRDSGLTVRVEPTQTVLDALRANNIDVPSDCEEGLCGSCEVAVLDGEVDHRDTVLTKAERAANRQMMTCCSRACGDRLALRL
Description: as §1, with “The equal volume of buffer was added to the reference cuvette.” left out, “Data were then fitted to Michaelis-Menten equation using GraphPad Prism 4.” left out
(§2) Purified TxtE and its fusion enzymes were spectrally analyzed following a previous protocol. Briefly, the absorbance spectra (400-600 nm) of TxtE variants (3 μM) in Tris-HCl (25 mM, pH 8) buffer were recorded with a Shimadzu UV2700 dual beam UV-Vis spectrophotometer. […] Data were further analyzed by GraphPad Prism 4. […]

TxtE [3] = target: T3, TxtE (Streptomyces scabiei, UniProt C9ZDC6); experiment: Substrate binding affinity by UV-Vis spectral titration, wild type TxtE; set-up: inferred from the pET28 vector and Ni-NTA purification) (C); made in house; host or cells: E. coli BL21 (DE3)-GOLD; species or system S. scabies 87.22; conditions: […] enzyme, 25 mM Tris-HCl pH 8.0
Description: as §1, with “The equal volume of buffer was added to the reference cuvette.” left out, “Data were then fitted to Michaelis-Menten equation using GraphPad Prism 4.” left out
as §2

TxtE-RhFRed [4] = target: T2, TxtE-RhFRed; experiment: Substrate binding affinity by UV-Vis spectral titration, TxtE-RhFRed; set-up: species or system S. scabies 87.22; conditions: […] enzyme, 25 mM Tris-HCl pH 8.0
Description: as §1, with “The equal volume of buffer was added to the reference cuvette.” left out, “Data were then fitted to Michaelis-Menten equation using GraphPad Prism 4.” left out
as §2

TxtE-BM3R [5] = target: T4, TxtE-BM3R (UniProt C9ZDC6); experiment: Substrate binding affinity by UV-Vis spectral titration, TxtE-BM3R; set-up: species or system S. scabies 87.22 / B. megaterium ATCC 14581; conditions: Kd, […] enzyme, 25 mM Tris-HCl pH 8.0; for 4-F-DL-tryptophan total concentration of the racemic mixture used
T4 construct: P450BM3 (CYP102A1) reductase domain BM3R with its Domcut-predicted native linker, from B. megaterium ATCC 14581 (GenBank J04832.1); made in house; host or cells: E. coli BL21 (DE3)-GOLD
Description: as §1
as §1, with “previous protocol.” for “previous protocol (Ding et al. 2008).”, “(3 μM)” for “(3 M)”, “to the” for “to Michaelis-Menten”, “equation of ΔA=ΔAmax[L]/(Kd+[L])” for “equation”

TxtE [6] = target: T3, TxtE; set-up: inferred from the pET28 vector and Ni-NTA purification) (C); made in house; host or cells: E. coli BL21 (DE3)-GOLD; conditions: previous studies (Barry et al. 2012; Dodani et al. 2014); cited from earlier work
[7] = Stability of NO donor NOC-5 at different pH values and temperatures; assay type: physicochemical
Description: The stability of NO donor NOC-5 was first examined. Its solution was incubated at different pH value (4.5 to 9.5) and temperatures (4 to 65° C.) for 30 min. It was then used as NO donor in the P450 nitration reactions. […] To determine pH effects on the activity of TxtE and TxtEBM3R, enzyme (1.5 μM) reactions were performed in 100 mM Tris-Cl or sodium phosphate with various pH values (4.5 to 9.5) at 20° C., 300 rpm for 30 min. To determine enzyme pH stability, 5 μL of 30 μM enzyme solutions were incubated at buffers with different pH value (4.5 to 9.5). After 15 minutes, other reaction components (95 μL) were mixed to initiate nitration reactions as described above. […] Products were quantitated by HPLC as described above. Conversion rate (%) was calculated by the equation of the area of under the 4-nitro-l-tryptophan peak/the total areas of both substrate and product peaks*100. […]
The stability of NO donor NOC-5 was first examined by incubating it in solutions of different pH values (4.5 to 9.5) and temperatures (4 to 65° C.) for 30 min. […] Products were quantitated by HPLC as described above. Peak area was determined with software installed in the Shimadzu Prominence UHPLC system. Conversion rate (%) was calculated as product (nmol)/product+substrate (nmol)×100 based on the standard curves of Trp and 4-NO2-Trp generated. […]

TxtE [8] = target: T3, TxtE; experiment: Binding affinities of L-tryptophan and substituted tryptophan analogs (FIG. 29A)
Description: Binding affinities and relative nitration conversions for L-tryptophan and several substituted tryptophan analogs were also assessed (FIGS. 29A-29B). […] Furthermore, the nitration activity of TxtE and TxtEBM3R was assessed. In addition to substrate, enzyme reactions typically contained NADP+, an NADPH regeneration system (glucose and glucose dehydrogenase, GDH), spinach ferredoxin (Fer) and ferredoxin reductase (Frd) as redox partners, and 3-[2-hydroxy-1-(l-methylethyl)-2-nitrosohydrazinyl]-1-propanamine (NOC-5) as an NO donor. Reverse-phase UHPLC coupled with a PDA detector and liquid chromatography-mass spectrometry (LC-MS, ESI positive) was employed to detect the nitrated products (FIG. 29B).

For `NC(Cc1c[nH]c2cccc(F)c12)C(=O)O` (racemic) [4-F-DL-tryptophan, 4-F-dl-tryptophan], the “binding affinity lowered compared with native substrate L-tryptophan” value (TxtE-BM3R [1]) was “about 8 times”, the Kd (TxtE-BM3R [1]) was 189 ± 11.1 µM and the “binding affinity to TxtE-BM3R compared with TxtE” value (TxtE-BM3R [1]) was “slightly tightened”.

For `N[C@@H](Cc1c[nH]c2ccc(F)cc12)C(=O)O` [5-F-L-tryptophan, 5-F-l-tryptophan], the “binding affinity lowered compared with native substrate L-tryptophan” value (TxtE-BM3R [1]) was roughly 3 times, the Kd (TxtE-BM3R [1]) was 84.2 ± 4.37 µM and the Kd (TxtE-BM3R [1]; listed as 5-F-l-tryptophan) was 84.2 ± 4.4 µM. The “binding affinity to TxtE-BM3R compared with TxtE” value (TxtE-BM3R [1]) was “slightly tightened”.

`N[C@@H](Cc1c[nH]c2ccccc12)C(=O)O` [L-tryptophan] gave a Kd (TxtE-RhFRed [2]) of 24.3 µM, a Kd (TxtE [3]) of 24.8 µM and a Kd (TxtE-RhFRed [4]) of 18.2 µM. It also gave a Kd (TxtE-BM3R [5]) of 20.8 µM.

For `N[C@H](Cc1c[nH]c2ccccc12)C(=O)O` [D-tryptophan], the “spectral changes induced in TxtE solution” value (TxtE [6]) is given as “unable to induce spectral changes”.

In the case of `CC(C)N(CCCN)/[N+]([O-])=N/O` [NOC-5, 3-(Aminopropyl)-1-hydroxy-3-isopropyl-2-oxo-1-triazene], the “stability at temperatures higher than 25° C.” value ([7]; 4 to 65° C., 30 min) is reported as “decomposed quickly and significantly” and the “stability at different pH values” ([7]; pH 4.5 to 9.5, 30 min) is reported as “stable in all tested pH values; also recorded: stable over a broad pH range; also recorded: stable at all tested pH values”.

With `N[C@H](CO)Cc1c[nH]c2ccccc12` [L-tryptophanol] the “binding affinity relative to L-tryptophan (FIG. 29A)” value (TxtE [8]) was “significantly weakened interactions”.

With `O=C(O)C(=O)Cc1c[nH]c2ccccc12` [indole-3-pyruvate] the “binding affinity relative to L-tryptophan (FIG. 29A)” value (TxtE [8]) was “significantly weakened interactions”.

In the case of `C[C@](N)(Cc1c[nH]c2ccccc12)C(=O)O` [α-Me-Trp], the “binding affinity relative to L-tryptophan (FIG. 29A)” value (TxtE [8]) is reported as “significantly weakened interactions”.

Source: US10550079B2, “Artificial self-sufficient cytochrome P450s” (University of Florida Research Foundation, Incorporated, priority 2015, dated 2020)
